SMILES strings stand for the structures.

For test [1], the target named is T1, hTRPM8 (transient receptor potential melastatin 8) (Homo sapiens, UniProt Q7Z2W7).
T1 construct: gene TRPM8; Full-length
Description: whole-cell patch clamp in HEK293T; inhibition of […] menthol-evoked current. It is filed as cell-based. For orientation: In patch-clamp work, channel activity is measured electrically.

The target of test [2] is T2, hTRPV1 (transient receptor potential vanilloid 1) (Homo sapiens, UniProt Q8NER1).
T2 construct: gene TRPV1; Full-length
Put plainly: whole-cell patch clamp in HEK293T; inhibition of […] capsaicin-evoked current. Type of test: cell-based.

T1 sequence (Q7Z2W7 whole entry): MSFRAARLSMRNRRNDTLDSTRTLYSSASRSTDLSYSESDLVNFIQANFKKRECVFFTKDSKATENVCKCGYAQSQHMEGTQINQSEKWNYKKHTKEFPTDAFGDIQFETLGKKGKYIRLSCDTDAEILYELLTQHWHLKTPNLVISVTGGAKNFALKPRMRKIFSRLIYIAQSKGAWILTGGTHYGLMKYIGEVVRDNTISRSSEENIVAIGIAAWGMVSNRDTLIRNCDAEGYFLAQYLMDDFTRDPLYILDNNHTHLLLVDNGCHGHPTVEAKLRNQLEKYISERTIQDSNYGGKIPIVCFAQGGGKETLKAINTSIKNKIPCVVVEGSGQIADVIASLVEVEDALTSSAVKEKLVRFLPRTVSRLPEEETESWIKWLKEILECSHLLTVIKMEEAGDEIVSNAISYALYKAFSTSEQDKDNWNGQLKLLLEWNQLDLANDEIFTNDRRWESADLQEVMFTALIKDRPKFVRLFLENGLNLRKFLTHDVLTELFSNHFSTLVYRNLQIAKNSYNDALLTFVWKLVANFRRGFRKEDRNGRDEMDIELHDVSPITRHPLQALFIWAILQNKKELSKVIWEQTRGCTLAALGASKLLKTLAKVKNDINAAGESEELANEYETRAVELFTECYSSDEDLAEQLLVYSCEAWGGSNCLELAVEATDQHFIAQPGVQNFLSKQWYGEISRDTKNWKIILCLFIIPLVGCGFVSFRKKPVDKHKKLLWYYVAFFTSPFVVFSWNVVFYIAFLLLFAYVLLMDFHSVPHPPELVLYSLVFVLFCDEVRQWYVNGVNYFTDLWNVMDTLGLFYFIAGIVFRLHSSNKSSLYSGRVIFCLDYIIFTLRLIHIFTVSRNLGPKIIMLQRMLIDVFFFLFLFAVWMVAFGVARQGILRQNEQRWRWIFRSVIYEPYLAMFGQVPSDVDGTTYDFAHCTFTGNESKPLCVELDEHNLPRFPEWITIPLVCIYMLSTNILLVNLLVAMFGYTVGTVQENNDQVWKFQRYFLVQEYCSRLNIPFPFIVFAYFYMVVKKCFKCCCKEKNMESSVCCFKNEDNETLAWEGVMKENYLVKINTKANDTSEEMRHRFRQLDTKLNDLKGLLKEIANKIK
T2 sequence (Q8NER1 whole entry): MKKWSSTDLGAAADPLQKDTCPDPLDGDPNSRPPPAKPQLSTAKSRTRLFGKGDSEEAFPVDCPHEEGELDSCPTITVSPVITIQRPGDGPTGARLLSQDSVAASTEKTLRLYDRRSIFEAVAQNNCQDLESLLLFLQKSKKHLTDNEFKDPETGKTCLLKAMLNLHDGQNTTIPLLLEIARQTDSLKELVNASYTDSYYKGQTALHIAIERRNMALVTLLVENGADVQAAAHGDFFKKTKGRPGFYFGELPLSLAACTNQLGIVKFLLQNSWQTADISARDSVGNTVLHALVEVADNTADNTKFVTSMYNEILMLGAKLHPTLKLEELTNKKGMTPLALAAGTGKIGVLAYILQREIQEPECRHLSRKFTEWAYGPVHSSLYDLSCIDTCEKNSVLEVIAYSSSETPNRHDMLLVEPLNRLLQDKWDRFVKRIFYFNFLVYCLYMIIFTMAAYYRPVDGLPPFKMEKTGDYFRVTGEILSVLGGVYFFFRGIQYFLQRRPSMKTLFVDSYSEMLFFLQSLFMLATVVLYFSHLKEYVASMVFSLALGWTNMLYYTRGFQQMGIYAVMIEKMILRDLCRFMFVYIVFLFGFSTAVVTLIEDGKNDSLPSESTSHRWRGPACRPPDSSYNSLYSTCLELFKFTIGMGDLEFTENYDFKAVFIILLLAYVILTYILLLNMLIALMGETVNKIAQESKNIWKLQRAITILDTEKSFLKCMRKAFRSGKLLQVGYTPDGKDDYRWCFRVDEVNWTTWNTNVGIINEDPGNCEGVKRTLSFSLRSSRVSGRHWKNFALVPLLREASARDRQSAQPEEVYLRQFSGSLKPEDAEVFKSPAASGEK

`COc1cc(CNC(=O)CCCC/C=C/C(C)C)ccc1O` [capsaicin]: the half-maximal inhibitory concentration (IC50) (in general, the point on the concentration scale where inhibition reaches its midpoint) in test [1] was determined as 39.9 ± 6.4 µM. In test [2], `CC1CCC(C(C)C)C(O)C1` (centres unmarked) [menthol] returned a half-maximal inhibitory concentration (IC50) of 1200 ± 200 µM.

Values taken from article PMC4752590, “Reciprocal effects of capsaicin and menthol on thermosensation through regulated activities of TRPV1 and TRPM8” (The Journal of Physiological Sciences : JPS, 2015).
